# Data from patent US9840510B1, “Pyrazolo[1,5-a]pyrimidinyl carboxamide compounds and their use in the treatment of medical disorders” (Lysosomal Therapeutics Inc., priority 2016, dated 2017).
# Experiment: Compound solubility in water
# Format: physicochemical
Compound,solubility [µg/mL],Compound Solubility in Water [µg/mL]
Cc1cc(C)n2ncc(C(=O)NC(CC(C)C)C3CC3)c2n1 (stereo not shown) [III-5],25.7,–
C#CC(C)(C)NC(=O)c1cnn2c(C)cc(-c3cccc(Cl)n3)nc12 [III-63],0.2,–
Cc1cc(-c2cccc3ncoc23)nc2c(C(=O)NC(C)(C)C3CC3)cnn12 [III-223],0.2,–
Cc1cc(C)n2ncc(C(=O)N[C@H](C3CC3)C(F)(F)F)c2n1 [III-10],15.3,–
Cc1cc(-c2cncc(Cl)c2)nc2c(C(=O)NC(C)(C)C3CC3)cnn12 [III-292],0.3,–
COc1c(C#N)cccc1-c1cc(C)n2ncc(C(=O)N[C@@H](C)C3CC3)c2n1 [III-143],17.4,–
Cc1cc(C)n2ncc(C(=O)NC3(C4CC4)CC3)c2n1 [III-12],38.4,–
Cc1cc(C)n2ncc(C(=O)N[C@H]3CC[C@H](OCC(C)C)CC3)c2n1 [III-191],26.3,–
Cc1cc(N2CCCCC2)n2ncc(C(=O)NC(C)(C)C3CC3)c2n1 [III-22],0.5,–
Cc1cc(-c2ccccn2)n2ncc(C(=O)NC(C)(C)C3CC3)c2n1 [III-17],2.2,–
Cc1cc(N2CCN(C(C)C)C2=O)nc2c(C(=O)N[C@@H](C3CC3)C(F)(F)F)cnn12 [III-326],21,–
Cc1cc(-c2cccnc2)n2ncc(C(=O)N[C@@H](C)C3CC3)c2n1 [III-27],18,–
Cc1cnc(F)c(-c2cc(C)n3ncc(C(=O)N[C@H](C4CC4)C(F)(F)F)c3n2)c1 [III-374],1.1,–
Cc1cc(-c2cccc(F)n2)nc2c(C(=O)N[C@@H](C)C3CC3)cnn12 [III-134],0.8,–
Cc1cc(N2CCC(F)(F)CC2)nc2c(C(=O)NC(C)C(F)(F)F)cnn12 (stereo not shown) [III-181],4.5,–
Cc1cc(-c2ccc3scnc3c2)nc2c(C(=O)N[C@@H](C)C3CC3)cnn12 [III-192],0.2,–
Cc1cc(-c2cccnc2)nc2c(C(=O)N[C@H]3CC[C@H](OCC(C)C)CC3)cnn12 [III-39],4.4,–
Cc1cc(N2CCN(C(C)C)C2=O)nc2c(C(=O)NC(C)(C)C3CC3)cnn12 [III-230],2.6,–
Cc1cc(-n2ccc(F)n2)nc2c(C(=O)NC(C3CC3)C(F)(F)F)cnn12 (stereo not shown) [III-172],0.5,–
Cc1cc(-c2nnc(C(C)C)o2)nc2c(C(=O)N[C@@H](C3CC3)C(F)(F)F)cnn12 [III-392],0.4,–
Cc1cc(N2CCCN(C(C)C)C2=O)nc2c(C(=O)NC(C)C(F)(F)F)cnn12 (stereo not shown) [III-259],25.8,–
Cc1cc(N2C[C@@H](c3ccccc3)OC2=O)nc2c(C(=O)NC(C3CC3)C(F)(F)F)cnn12 (stereo partly shown) [III-315],0.1,–
Cc1cc(NC2CC2)nc2c(C(=O)NC(C3CC3)C(F)(F)F)cnn12 (stereo not shown) [III-44],3,–
Cc1cc(-c2ccc3c(c2)OCO3)nc2c(C(=O)N[C@@H](C)C3CC3)cnn12 [III-210],2.4,–
Cc1cc(-c2ccncc2)nc2c(C(=O)NC(C)(C)C3CC3)cnn12 [III-20],6.3,–
Cc1cnc(-c2cc(C)n3ncc(C(=O)NC(C4CC4)C(F)(F)F)c3n2)o1 (stereo not shown) [III-253],0.7,–

# The next lines start with the values.
solubility [µg/mL],Compound Solubility in Water [µg/mL],Compound
0.2,–,Cc1cc(-c2cccc(C#N)n2)nc2c(C(=O)NC(C3CC3)C(F)(F)F)cnn12 (stereo not shown) [III-133]
0.01,–,COc1ccc(F)cc1-c1cc(C)n2ncc(C(=O)N[C@H](C)C(F)(F)F)c2n1 [III-195]
0.5,–,Cc1cc(-c2ccc(N3CCOCC3)c(F)c2)nc2c(C(=O)NC(C)C(F)(F)F)cnn12 (stereo not shown) [III-299]
1.2,–,COc1ccc(-c2cc(C)n3ncc(C(=O)NC(C4CC4)C(F)(F)F)c3n2)cn1 (stereo not shown) [III-268]
6.3,–,Cc1cc(-c2ccc(C#N)o2)nc2c(C(=O)NC(C3CC3)C(F)(F)F)cnn12 (stereo not shown) [III-185]
2,–,Cc1cc(-c2ccc(F)o2)nc2c(C(=O)N[C@H](C)C(F)(F)F)cnn12 [III-334]
1.9,–,Cc1cc(-c2cccnc2)nc2c(C(=O)NC(C(C)C)C(F)(F)F)cnn12 (stereo not shown) [III-41]
3.1,–,COc1ccc(-c2cc(C)n3ncc(C(=O)N[C@H](C)C(F)(F)F)c3n2)cn1 [III-272]
2.1,–,Cc1cc(-c2cccnc2Cl)nc2c(C(=O)NC(C3CC3)C(F)(F)F)cnn12 (stereo not shown) [III-123]
0.4,–,Cc1cc(-c2cccc(C(N)=O)c2)nc2c(C(=O)NC(C3CC3)C(F)(F)F)cnn12 (stereo not shown) [III-73]
0.7,–,Cc1cc(-c2ccc(F)cc2C#N)nc2c(C(=O)NC(C)C(F)(F)F)cnn12 (stereo not shown) [III-154]
0.9,–,Cc1cc(-c2ccns2)nc2c(C(=O)N[C@H](C3CC3)C(F)(F)F)cnn12 [III-100]
6.4,–,Cc1cc(-c2cccc(Cl)n2)nc2c(C(=O)N[C@H](C)C(F)(F)F)cnn12 [III-235]
0.1,–,Cc1cc(-c2cc(F)ccc2C#N)nc2c(C(=O)N[C@H](C)C(F)(F)F)cnn12 [III-349]
1.5,–,Cc1ccc(-c2cc(C)n3ncc(C(=O)N[C@H](C4CC4)C(F)(F)F)c3n2)cn1 [III-279]
2.1,–,Cc1cc(-c2cnccc2Cl)nc2c(C(=O)NC(C3CC3)C(F)(F)F)cnn12 (stereo not shown) [III-122]
6.2,–,Cc1cc(-c2cccc(Cl)c2)nc2c(C(=O)NC(C)C(F)(F)F)cnn12 (stereo not shown) [III-64]
0.6,–,Cc1cc(-c2cccc(F)c2)nc2c(C(=O)N[C@@H](C)C(F)(F)F)cnn12 [III-362]

solubility [µg/mL],Compound Solubility in Water [µg/mL],Compound
0.06,–,COc1cc(F)cc(-c2cc(C)n3ncc(C(=O)NC(C)C(F)(F)F)c3n2)c1 (stereo not shown) [III-410]
0.4,–,Cc1cc(-c2ccc3ocnc3c2)nc2c(C(=O)N[C@@H](C3CC3)C(F)(F)F)cnn12 [III-110]
0.1,–,Cc1cc(-c2cc(F)ccn2)nc2c(C(=O)NC(C3CC3)C(F)(F)F)cnn12 (stereo not shown) [III-205]
1.2,–,Cc1cc(-c2cccc(-n3cccn3)c2)nc2c(C(=O)NC(C3CC3)C(F)(F)F)cnn12 (stereo not shown) [III-415]
1.1,–,Cc1cc(-c2ccc(F)c(C(N)=O)c2)nc2c(C(=O)N[C@@H](C)C3CC3)cnn12 [III-160]
1.6,–,CNC(=O)c1cccc(-c2cc(C)n3ncc(C(=O)NC(C4CC4)C(F)(F)F)c3n2)c1 (stereo not shown) [III-414]
0.5,–,Cc1cc(-n2ccc(Cl)n2)nc2c(C(=O)NC(C)C(F)(F)F)cnn12 (stereo not shown) [III-170]
0.7,–,Cc1cc(-c2ccc(F)cc2)nc2c(C(=O)N[C@@H](C)C(F)(F)F)cnn12 [III-360]
13.2,–,Cc1cc(-c2cnccc2C(F)(F)F)nc2c(C(=O)NC(C)C(F)(F)F)cnn12 (stereo not shown) [III-284]
2.6,–,Cc1cncc(-c2cc(C)n3ncc(C(=O)NC(C4CC4)C(F)(F)F)c3n2)c1 (stereo not shown) [III-275]
–,0.3,Cc1cc(-c2ccc3ocnc3c2)nc2c(C(=O)NC(C3CC3)C(F)(F)F)cnn12 (stereo not shown) [III-108]
1.8,–,Cc1cc(-c2cccnc2C#N)nc2c(C(=O)N[C@H](C3CC3)C(F)(F)F)cnn12 [III-365]
2.3,–,COc1ccc(-c2cc(C)n3ncc(C(=O)NC(C)C(F)(F)F)c3n2)cn1 (stereo not shown) [III-271]
0.05,–,Cc1cc(-c2cccc(Cl)n2)nc2c(C(=O)NC(C3CC3)C(F)(F)F)cnn12 (stereo not shown) [III-237]
0.2,–,C#CC(NC(=O)c1cnn2c(C)cc(-c3cccc(Cl)c3)nc12)C(F)(F)F (stereo not shown) [III-99]
1.6,–,Cc1cc(-c2ccc(F)cc2)nc2c(C(=O)N[C@@H](C)C3CC3)cnn12 [III-7]
1.2,–,COc1cc(-c2cc(C)n3ncc(C(=O)NC(C)C(F)(F)F)c3n2)ccc1F (stereo not shown) [III-148]
